Measurements: publication PMC7702303, “Biochemical and transcript level differences between the three human phosphofructokinases show optimisation of each isoform for specific metabolic niches” (Biochemical Journal, 2020)
“And” between values parts separate entries of the source, which are not always exact repeats. Equal entries are not always repeated. Where two headings read alike, the source gives them in different places. Blank lines part the entries; values can stand above or below the compound they belong to.

Assays:
PFKM = details: cited from earlier work; for IC50 / IC50 or AC50 (activator): PFKM; for IC50: read-out: IC50 or AC50 (inhibitor); for KmF6P: PFK-M
recombinant human PFK-P = target: T1, recombinant human PFK-P (Homo sapiens, UniProt Q01813); experiment: ALDO-TIM-G3PDH enzyme-linked kinetic assay, PFK-P; type: biochemical; details: for K0.5ATP + modulator / VmaxATP + modulator: F6P 4mM
T1 construct: made in house; host or cells: PFK-deficient Saccharomyces cerevisiae
T1 sequence (Q01813 1-784): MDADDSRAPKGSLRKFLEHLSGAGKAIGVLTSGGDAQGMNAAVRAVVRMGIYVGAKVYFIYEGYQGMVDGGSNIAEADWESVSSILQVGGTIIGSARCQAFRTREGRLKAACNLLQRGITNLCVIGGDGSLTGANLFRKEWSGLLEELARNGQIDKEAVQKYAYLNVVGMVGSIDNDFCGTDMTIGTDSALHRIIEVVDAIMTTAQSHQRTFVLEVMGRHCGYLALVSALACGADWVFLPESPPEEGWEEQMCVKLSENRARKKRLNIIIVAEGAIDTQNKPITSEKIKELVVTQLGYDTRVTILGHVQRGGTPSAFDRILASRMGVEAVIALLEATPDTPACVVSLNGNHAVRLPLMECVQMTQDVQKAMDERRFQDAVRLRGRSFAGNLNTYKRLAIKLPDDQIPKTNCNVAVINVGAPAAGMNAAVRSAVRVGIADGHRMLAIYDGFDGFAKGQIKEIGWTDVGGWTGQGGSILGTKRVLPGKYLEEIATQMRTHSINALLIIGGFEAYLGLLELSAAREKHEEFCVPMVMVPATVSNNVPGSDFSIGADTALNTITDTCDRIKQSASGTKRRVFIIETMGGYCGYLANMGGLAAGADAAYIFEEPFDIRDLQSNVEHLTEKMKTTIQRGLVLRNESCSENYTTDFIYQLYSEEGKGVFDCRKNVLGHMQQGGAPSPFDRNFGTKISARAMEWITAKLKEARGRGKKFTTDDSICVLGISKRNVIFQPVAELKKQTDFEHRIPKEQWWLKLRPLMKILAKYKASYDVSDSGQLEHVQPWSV
Experimental: (§1) Recombinant human PFKs were expressed in PFK-deficient Saccharomyces cerevisiae and purified using the methods described previously, adapting earlier materials and protocols. Production of PFK intended for use in ATP titration experiments used 1 mM F6P as a tetramer stabilising agent in protein purification and storage buffers. Production of PFK intended for use in F6P titration experiments used 1 mM ATP as a tetramer stabilising agent in protein purification and storage buffers. Experimental details on the purification and characterisation procedures including figures showing SDS–PAGE gels of the highly pure PFKs used in the kinetic experiments described in this work have been recently published.
(§2) Assay buffer consisted of 50 mM TEA, 100 mM KCl, 10 mM MgCl2, 1 mM Tris(2-carboxyethyl)phosphine hydrochloride (TCEP), 10% glycerol, pH 7.4. Assay mix consisted of 5 units/ml glycerol-3-phosphate dehydrogenase (G3PDH, Sigma–Aldrich G6880), 2.5 units/ml aldolase (Sigma–Aldrich A2714), 25 units/ml triosephosphate isomerase (TIM, Sigma–Aldrich T6258), and 1.25 mM NADH. ATP and F6P were obtained from Sigma–Aldrich (A2383 and F3627, respectively). For ATP titrations, 38 µl of buffer or ligand were added to a clear non-binding 96-well plate. 40 µl of assay mix containing 10 mM F6P (final concentration 4 mM) was added and the plate was incubated at 25°C for 5 min. An amount of 2 µl of PFK isoforms were added to each well from stock concentrations of 150 µg/ml and the reaction was immediately started with 20 µl of ATP at varying concentrations. For F6P titrations, 30 µl of buffer or ligand was added to a clear non-binding 96-well plate. An amount of 40 µl of assay mix containing 1.25 mM ATP (final concentration 0.5 mM) was added and the plate was incubated at 25°C for 5 min. An amount of 5 µl of PFK isoforms were added to each well from stock concentrations of 200 µg/ml and the reaction was immediately started with 20 µl F6P at varying concentrations. All ligands and substrates (including ATP) were used at pH 7.4. All metabolites were obtained from Sigma–Aldrich unless otherwise stated. […] A SpectraMax M5 Multi-Mode Microplate Reader was used to measure A340nm at 13 s intervals for 10 min. All experiments were performed in triplicate unless otherwise stated.
(§3) Time-dependent absorbance change was converted into rate of NADH oxidation (µM s^−1) or specific activity (µmol min^−1 mg protein^−1) using the Beer-Lambert law (molar extinction coefficient of NADH 6.22 mM^−1 cm^−1). The initial rate of reaction was used to avoid accumulation of ADP, which activates PFK, interfering with the determination of kinetic properties. Non-linear regression analysis was performed on substrate titration data using GraphPad Prism 7, with curves fitted using allosteric sigmoidal models, enabling determination of steady-state kinetic values.

recombinant human PFK-L = target: T2, recombinant human PFK-L (Homo sapiens, UniProt P17858); experiment: ALDO-TIM-G3PDH enzyme-linked kinetic assay, PFK-L; type: biochemical; details: for K0.5ATP + modulator / VmaxATP + modulator: F6P 4mM
T2 construct: made in house; host or cells: PFK-deficient Saccharomyces cerevisiae
T2 sequence (P17858 1-780): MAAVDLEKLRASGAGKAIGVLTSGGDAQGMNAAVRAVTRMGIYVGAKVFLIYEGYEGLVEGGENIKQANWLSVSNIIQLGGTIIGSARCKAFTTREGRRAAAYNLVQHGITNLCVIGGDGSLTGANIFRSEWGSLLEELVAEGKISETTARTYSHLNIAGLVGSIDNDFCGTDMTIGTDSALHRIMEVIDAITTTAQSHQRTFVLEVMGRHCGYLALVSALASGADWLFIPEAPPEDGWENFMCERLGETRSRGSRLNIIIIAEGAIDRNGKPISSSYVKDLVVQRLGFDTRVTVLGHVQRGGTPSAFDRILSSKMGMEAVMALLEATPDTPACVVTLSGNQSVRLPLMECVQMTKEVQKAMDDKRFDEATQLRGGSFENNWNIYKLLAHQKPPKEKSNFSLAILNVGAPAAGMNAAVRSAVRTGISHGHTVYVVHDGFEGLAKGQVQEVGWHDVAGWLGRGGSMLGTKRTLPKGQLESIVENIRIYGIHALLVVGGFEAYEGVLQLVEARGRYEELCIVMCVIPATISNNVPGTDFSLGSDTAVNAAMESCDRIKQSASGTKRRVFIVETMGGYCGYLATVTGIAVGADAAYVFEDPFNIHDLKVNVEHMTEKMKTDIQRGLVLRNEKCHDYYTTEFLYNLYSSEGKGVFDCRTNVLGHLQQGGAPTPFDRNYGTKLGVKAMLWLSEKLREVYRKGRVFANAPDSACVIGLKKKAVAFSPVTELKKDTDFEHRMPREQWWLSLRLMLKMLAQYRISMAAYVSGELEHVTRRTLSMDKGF
Experimental: as §1, §2, §3

[1] = modulator 600 µM, ATP 0.5mM, N=3, mean (SD)
[2] = modulator 600 µM, N=3, mean (SD)
[3] = PFK-L, modulator 600 µM, ATP 0.5mM, N=3, mean (SD)
[4] = PFK-L, modulator 600 µM, N=3, mean (SD)
[5] = modulator 10 µM, ATP 0.5mM, N=3, mean (SD)
[6] = modulator 10 µM, N=3, mean (SD)
[7] = PFK-L, modulator 10 µM, ATP 0.5mM, N=3, mean (SD)
[8] = PFK-L, modulator 10 µM, N=3, mean (SD)

IC50 (recombinant human PFK-P; dose-response, read-out: IC50^citrate): 177 ± 132 µM | change in kcat^ATP/K0.5^ATP compared with control PFK without modulator (recombinant human PFK-P; modulator 600 µM): +136% | change in kcat^F6P/K0.5^F6P compared with control PFK without modulator (recombinant human PFK-P; modulator 600 µM): −78% | K0.5F6P + modulator (recombinant human PFK-P; [1]): 1494 (627) M | VmaxF6P + modulator (recombinant human PFK-P; [1]): 0.43 (0.12) moles/min/mg | K0.5ATP + modulator (recombinant human PFK-P; [2]): 46.0 (14.4) M | VmaxATP + modulator (recombinant human PFK-P; [2]): 10.18 (0.89) moles/min/mg | IC50^citrate (recombinant human PFK-L; PFK-L, dose-response): no clear relationship | change in kcat^ATP/K0.5^ATP compared with control PFK without modulator (recombinant human PFK-L; PFK-L, modulator 600 µM): +28% | change in kcat^F6P/K0.5^F6P compared with control PFK without modulator (recombinant human PFK-L; PFK-L, modulator 600 µM): +2% | K0.5F6P + modulator (recombinant human PFK-L; [3]): 2471 (244) M | VmaxF6P + modulator (recombinant human PFK-L; [3]): 6.52 (0.71) moles/min/mg | K0.5ATP + modulator (recombinant human PFK-L; [4]): 108.4 (9.5) M | VmaxATP + modulator (recombinant human PFK-L; [4]): 36.14 (1.12) moles/min/mg
Structure (SMILES): O=C(O)CC(O)(CC(=O)O)C(=O)O [Citrate]
IC50 (PFKM; ref Foe and Kemp, 1985): 100 µM | IC50 (PFKM; ref Vora 1985): 130 µM

K0.5^F6P (recombinant human PFK-P; F6P titration, ATP 0.5 mM, n = 6, mean (SD)): 1333 µM and 1333 (312) µM | K0.5F6P (recombinant human PFK-P; control without modulator, run alongside modulator experiments, ATP 0.5mM, N=3, mean (SD)): 1238 (179) M and 1607 (90) M | K0.5^F6P (recombinant human PFK-L; PFK-L, F6P titration, ATP 0.5 mM, n = 6, mean (SD)): 1360 µM and 1360 (40) µM | K0.5F6P (recombinant human PFK-L; PFK-L, control without modulator, run alongside modulator experiments, ATP 0.5mM, N=3, mean (SD)): 1432 (34) M and 1282 (53) M
Structure (SMILES): O=C(CO)[C@@H](O)[C@H](O)[C@H](O)COP(=O)(O)O [F6P, fructose 6-phosphate]
KmF6P (PFKM; partially purified tissue, ATP 1000M, ref Dunaway et al(8) 1988): 2000 µM | KmF6P (PFKM; purified tissue, ATP 500M, ref Meienhofer et al(7) 1980): 1800 µM | KmF6P (PFKM; recombinant (yeast), ATP 5000M, ref Sanchez-Martinez et al(9) 2000): 2000 µM

effect on PFK activity, in words (recombinant human PFK-P): strongly activated | allosteric constant K0.5^ATP+F26BP/K0.5^ATP (recombinant human PFK-P; ATP titration): 0.54 | AC50 (recombinant human PFK-P; activation, read-out: AC50^F26BP): 9.13 µM | change in kcat^ATP/K0.5^ATP compared with control PFK without modulator (recombinant human PFK-P; modulator 10 µM): +88% | change in kcat^F6P/K0.5^F6P compared with control PFK without modulator (recombinant human PFK-P; modulator 10 µM): +111% | K0.5F6P + modulator (recombinant human PFK-P; [5]): 2143 (132) M | VmaxF6P + modulator (recombinant human PFK-P; [5]): 2.45 (0.18) moles/min/mg | K0.5ATP + modulator (recombinant human PFK-P; [6]): 176.8 (33.8) M | VmaxATP + modulator (recombinant human PFK-P; [6]): 31.26 (1.96) moles/min/mg | effect on PFK activity, in words (recombinant human PFK-L; PFK-L): strongly activated | decrease in AC50^F26BP for PFK-L compared with PFK-P (recombinant human PFK-L; PFK-L vs PFK-P): > 50 fold | allosteric constant K0.5^ATP+F26BP/K0.5^ATP (recombinant human PFK-L; PFK-L, ATP titration): 0.92 | AC50 (recombinant human PFK-L; PFK-L, activation, read-out: AC50^F26BP): 0.17 µM | change in kcat^ATP/K0.5^ATP compared with control PFK without modulator (recombinant human PFK-L; PFK-L, modulator 10 µM): +6.5% | change in kcat^F6P/K0.5^F6P compared with control PFK without modulator (recombinant human PFK-L; PFK-L, modulator 10 µM): +148% | K0.5F6P + modulator (recombinant human PFK-L; [7]): 698 (105) M | VmaxF6P + modulator (recombinant human PFK-L; [7]): 5.07 (0.41) moles/min/mg | K0.5ATP + modulator (recombinant human PFK-L; [8]): 139.4 (12.3) M | VmaxATP + modulator (recombinant human PFK-L; [8]): 38.57 (1.23) moles/min/mg
Structure (SMILES): O=P(O)(O)OC[C@H]1O[C@@](CO)(OP(=O)(O)O)[C@@H](O)[C@@H]1O [F26BP, fructose 2,6-bisphosphate]
IC50 or AC50 (activator) (PFKM; ref Foe and Kemp, 1985): 0.05 µM | IC50 or AC50 (activator) (PFKM; unit inferred, ref Vora 1985): 10 µM
